Measurements: patent US8372834B2, “Compositions and methods for delivery of anti-cancer agents” (University of Wollongong, priority 2007, dated 2013)

Columns and labels:
MDA-MB-231 = experiment: In vitro cytotoxicity, MTS cell proliferation assay; assay type: cell-based; settings: Homo sapiens, MDA-MB-231 cells, 72 h, mean IC50 ± SD, at least 3 independent experiments, read-out: IC50 (μM 5-FU)
Method: (§1) After 72 h, cell proliferation was analysed by the MTS assay and normalised to saline control treatments (100% proliferation). ● 5-FU, ▪ 5-FU:FA, ▴ FD45c, ♦ FD50-7Sc, ? FD100HPc. Dashed lines represent the IC50 for each treatment (GraphPad). Values shown are mean±SD (n=4, except for HCT-116 FD50-7Sc and MDA-MB-231 FD100HPc where n=3)
(§2) In vitro cytotoxicity assays were carried out on 5 different carcinoma cell lines (MDA-MB-231, HCT-116, COLO-201, PC-3 and PC-14) using 3 different compositions of the invention (FD45c, FD50-7Sc and FD100HPc). MDA-MB-231 is a breast cancer cell line, HCT-116 and COLO-201 are colon cancer cell lines, PC-3 is a prostate cancer cell line and PC-14 is a non-small cell lung cancer cell line.
(§3) The levels of 5-FU and FA remained constant in each composition. For comparison, assays were also performed using a combination of 5-FU and FA (5-FU:FA), and also 5-FU only. A summary of IC50 values for all cell lines is presented in Table 1 below, and representative dose-response curves used to generate these IC50 values are presented in FIG. 3.

HCT-116 = experiment: as above; assay type: cell-based; settings: Homo sapiens, HCT-116 cells, 72 h, mean IC50 ± SD, at least 3 independent experiments, read-out: IC50 (μM 5-FU)
Method: as §1, §2, §3

PC-14 = experiment: as above; assay type: cell-based; settings: PC-14 cells
Method: as §1, §2, §3

PC-3 = experiment: as above; assay type: cell-based; settings: Homo sapiens, PC-3 cells, 72 h, mean IC50 ± SD, at least 3 independent experiments, read-out: IC50 (μM 5-FU)
Method: as §1, §2, §3

COLO-201 = experiment: as above; assay type: cell-based; settings: COLO-201 cells
Method: as §1, §2, §3

[1] = Preliminary stability study of compositions; assay type: physicochemical; settings: three weeks, room temperature, protected from light
Method: A preliminary assessment of the stability of the compositions was carried out over a period of three weeks. Test samples were manufactured using the FD2 method described above and stored at room temperature. 5-FU is known to be light sensitive and therefore the samples were protected from exposure to light. The samples were monitored at set time intervals for signs of decomposition using a solution of the equivalent concentration of 5-FU in saline (0.9%) as a control. The methods of monitoring the solutions were physical appearance (solid formation etc.), pH and UV-VIS absorbance spectroscopy (266 nm). The 5-FU solution was warmed and sonicated to dissolve any solid 5-FU that had precipitated before pH and absorbance readings.

[2] = Homo sapiens, 72 h, MTS assay, mean IC50 ± SD, at least 3 independent experiments, read-out: IC50 (μM 5-FU)

For `O=c1[nH]cc(F)c(=O)[nH]1` [Composition 5-FU, 5-fluorouracil], the IC50 (MDA-MB-231) was 9.1 ± 1.4 µM, the IC50 (HCT-116) was 4 ± 1.3 µM and the IC50 (PC-14; [2]) was 33.4 ± 12.2 µM. For the same molecule, the “effectiveness compared to 5-FU:FA” value (PC-14; P=0.0084) was “significantly less effective than 5-FU:FA”, the IC50 (PC-3) was 1.4 ± 0.8 µM and the “effectiveness compared to 5-FU:FA” value (COLO-201; P=0.0084) was “significantly less effective than 5-FU:FA”. For the same molecule, the IC50 (COLO-201; [2]) was 39.3 ± 13.9 µM, the “change in pH over time” value [1] was “No significant change” and the “change in A266 over time (UV-VIS absorbance, 266 nm)” value ([1]; serial dilution) was “No overall trend of change”.
